In the supplement of paper PMC10307832:

Compound: CN(c1ncccc1CNc1nc(Nc2ccc3c(c2)CC(=O)N3)ncc1C(F)(F)F)S(C)(=O)=O
Assay: relative viability (nuclei count vs DMSO), 5 days (fraction); higher = more cells survive
Procedure, shortened: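 Viability was read as treated-well nuclei divided by vehicle-well nuclei, using the median across plates. Lung cancer cell lines in 1536-well plates were kept overnight at 37 °C, pinned with five √10-spaced library-drug doses, and after 5 days were Hoechst-stained, imaged at 4× and counted in MetaXpress. Plates passed only with control CV below 25% and at least one doubling.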

Cell Line | relative viability (0.01 µM) | relative viability (0.03162 µM) | relative viability (0.1 µM) | relative viability (0.3162 µM) | relative viability (1 µM)
NCI-H441 | 1.09 | 1.15 | 0.901 | 1.22 | 0.767
NCI-H1793 | 0.877 | 1.07 | 0.928 | 0.857 | 0.786
NCI-H23 | 1.02 | 0.963 | 1.06 | 1.06 | 0.973
HARA | 0.943 | 0.757 | 0.937 | 0.874 | 0.787
NCI-H1792 | 0.925 | 0.983 | 0.888 | 0.975 | 0.992
NCI-H1703 | 0.955 | 0.931 | 0.861 | 1.08 | 0.905
NCI-H1648 | 0.773 | 0.512 | 0.585 | 0.634 | 0.458
CAL-12T | 1.03 | 0.979 | 0.914 | 0.865 | 0.849
NCI-H727 | 1 | 0.949 | 0.87 | 1.02 | 0.79
NCI-H2085 | 0.989 | 1.04 | 0.947 | 0.948 | 0.9
NCI-H1395 | 0.94 | 0.977 | 0.812 | 1.01 | 0.988
SW 900 | 1.03 | 0.961 | 0.791 | 0.867 | 0.753
NCI-H460 | 1 | 1.1 | 0.979 | 1 | 1.02
A549 | 1.04 | 1.17 | 0.922 | 0.95 | 0.95
IA-LM | 0.899 | 1.11 | 0.912 | 0.823 | 0.805
EKVX | 0.971 | 1.08 | 0.945 | 0.883 | 0.88
ChaGo-K-1 | 0.963 | 1.08 | 0.948 | 0.96 | 1.02
NCI-H1755 | 1.05 | 1.05 | 0.956 | 0.922 | 0.938
NCI-H2228 | 1.01 | 1.23 | 1.23 | 1.01 | 0.921
NCI-H2087 | 1.01 | 1.21 | 0.974 | 1.05 | 1.06
LU99A | 0.964 | 1.06 | 1.04 | 1.17 | 1.01
NCI-H1355 | 1.03 | 1.03 | 0.954 | 0.995 | 0.948
NCI-H520 | 1.04 | 1.2 | 1.03 | 1.17 | 1.18
NCI-H661 | 1.08 | 1.05 | 0.89 | 0.988 | 0.968
NCI-H650 | 1.03 | 1 | 0.825 | 0.905 | 0.802
NCI-H647 | 0.979 | 1.26 | 1.02 | 0.889 | 0.886

Cell Line | relative viability (0.01 µM) | relative viability (0.03162 µM) | relative viability (0.1 µM) | relative viability (0.3162 µM) | relative viability (1 µM)
201T | 1.02 | 0.951 | 0.911 | 0.949 | 0.961
NCI-H838 | 1.01 | 1.03 | 0.979 | 0.903 | 0.808
SW 1573 | 0.996 | 1.12 | 0.974 | 0.922 | 0.944
PC-14 | 1.09 | 1.09 | 1.05 | 0.982 | 0.963
LK-2 | 1.05 | 1.24 | 1.03 | 1.08 | 1.1
COR-L23 | 1.01 | 1.1 | 0.981 | 1 | 0.8
NCI-H1944 | 0.993 | 0.983 | 1 | 1.02 | 1.06
HCC-78 | 0.993 | 1.02 | 0.807 | 0.862 | 0.739
NCI-H2405 | 1.06 | 0.935 | 0.931 | 0.8 | 0.82
SK-LU-1 | 1.04 | 1.15 | 0.993 | 1.02 | 0.908
EMC-BAC-2 | 1.02 | 0.921 | 0.938 | 0.948 | 0.948
NCI-H1650 | 0.924 | 0.961 | 0.947 | 0.904 | 0.886
NCI-H596 | 0.977 | 0.917 | 1.02 | 0.886 | 0.94
LCLC-97TM1 | 1 | 1.11 | 0.881 | 0.966 | 0.821
H3255 | 0.974 | 1.07 | 0.95 | 0.906 | 0.972
LXF-289 | 1.09 | 1.05 | 1.01 | 0.991 | 1.01
UMC-11 | 0.961 | 0.966 | 0.993 | 0.963 | 0.861
LC-2-ad | 1.01 | 1.01 | 0.966 | 0.883 | 0.967
SK-MES-1 | 1.01 | 1.06 | 0.954 | 0.971 | 0.832
A-427 | 1.01 | 1.02 | 0.944 | 1.02 | 1.05
NCI-H322M | 1 | 1.03 | 0.917 | 1.12 | 1.12
HCC-366 | 0.997 | 1.04 | 1.02 | 1 | 1.02
NCI-H1975 | 1.01 | 0.964 | 0.927 | 0.931 | 0.95
NCI-H1437 | 0.994 | 1.02 | 0.946 | 0.936 | 0.877
NCI-H2009 | 1.07 | 1.03 | 0.965 | 0.961 | 0.982
NCI-H1651 | 1.02 | 1.04 | 1 | 0.982 | 0.963

Cell Line | relative viability (0.01 µM) | relative viability (0.03162 µM) | relative viability (0.1 µM) | relative viability (0.3162 µM) | relative viability (1 µM)
LCLC-103H | 0.964 | 0.966 | 0.877 | 0.919 | 0.958
NCI-H1666 | 1.01 | 0.953 | 0.965 | 0.818 | 0.719
NCI-H1734 | 0.985 | 1.04 | 0.947 | 1.02 | 0.953
EPLC-272H | 0.948 | 0.955 | 1.01 | 1.18 | 0.875
NCI-H2023 | 1.06 | 1.19 | 0.787 | 0.797 | 0.892
BEN | 1.05 | 1.06 | 1.03 | 1 | 1.02
COR-L 105 | 1.04 | 0.955 | 0.945 | 0.874 | 0.92
ABC-1 | 0.947 | 0.818 | 0.926 | 0.899 | 0.879
HCC-15 | 1.02 | 1.06 | 0.888 | 0.908 | 0.853
NCI-H2170 | 0.962 | 1.13 | 1 | 0.965 | 0.981
PC-3 [JPC-3] | 0.998 | 1.05 | 0.981 | 1.03 | 0.943
NCI-H1993 | 0.855 | 0.99 | 0.855 | 0.925 | 0.821
NCI-H358 | 0.943 | 0.973 | 0.868 | 0.838 | 0.664
NCI-H1563 | 1 | 0.962 | 0.947 | 0.808 | 0.938
EBC-1 | 1.03 | 1.09 | 0.989 | 0.937 | 0.776
NCI-H1915 | 0.992 | 1 | 0.965 | 0.995 | 0.991
RERF-LC-KJ | 0.986 | 1.16 | 1.03 | 0.989 | 1.01
LOU-NH91 | 1.04 | 0.976 | 0.925 | 1.02 | 1.02
NCI-H2347 | 1.09 | 0.942 | 0.978 | 0.877 | 0.829
NCI-H2126 | 1 | 1 | 0.911 | 0.964 | 0.872
HCC-827 | 1.05 | 1.08 | 1.04 | 1.01 | 0.989
Calu-6 | 1.06 | 0.99 | 0.945 | 0.961 | 0.863
NCI-H3122 | 0.994 | 1.06 | 1.01 | 1.03 | 0.953
HOP-62 | 1.07 | 1.08 | 0.99 | 0.979 | 0.98
HCC-44 | 0.956 | 0.941 | 0.917 | 1 | 0.984
